Assay results reported in patent publication US20240423925A1, “GRANULE COMPRISING ENCAPSULATED ACTIVE INGREDIENTS” (DSM IP ASSETS B.V., priority 2021, published 2024).

Assay: Differential scanning calorimetry (DSC) of sorbitol grades
Type: physicochemical
Details: sorbitol grades used as binder
Protocol: Different grades of sorbitol were then investigated in order to further reduce the energy required to generate good water soluble granules. Samples were analyzed via differential scanning calorimetry (DSC) in order to determine the sorbitol grade with the lowest melt energy. When using sorbitol grade Xtab300S (available at Roquette®) as a binder, the energy required to generate good water-soluble granules is lower than the other grades (cf. Table below).

OC[C@@H](O)[C@@H](O)[C@H](O)[C@@H](O)CO [Example P100C, sorbitol]
Melt Energy: 181.9 J/g

OC[C@@H](O)[C@@H](O)[C@H](O)[C@@H](O)CO [Example P300C, sorbitol]
Melt Energy: 180.3 J/g

OC[C@@H](O)[C@@H](O)[C@H](O)[C@@H](O)CO [Example P550SD, sorbitol]
Melt Energy: 165.1 J/g

OC[C@@H](O)[C@@H](O)[C@H](O)[C@@H](O)CO [Example P650C, sorbitol]
Melt Energy: 174.9 J/g

OC[C@@H](O)[C@@H](O)[C@H](O)[C@@H](O)CO [Xtab200S, sorbitol]
Melt Energy: 161.7 J/g

OC[C@@H](O)[C@@H](O)[C@H](O)[C@@H](O)CO [Xtab300S, sorbitol]
Melt Energy: 126.5 J/g
